Data: the supplement of paper PMC12076712

Key:
Assay in all cases: pIC50, kinobeads binding competition
[1] = molecular target: T1, PIP4K2A (UniProt P48426)
T1 sequence (whole entry): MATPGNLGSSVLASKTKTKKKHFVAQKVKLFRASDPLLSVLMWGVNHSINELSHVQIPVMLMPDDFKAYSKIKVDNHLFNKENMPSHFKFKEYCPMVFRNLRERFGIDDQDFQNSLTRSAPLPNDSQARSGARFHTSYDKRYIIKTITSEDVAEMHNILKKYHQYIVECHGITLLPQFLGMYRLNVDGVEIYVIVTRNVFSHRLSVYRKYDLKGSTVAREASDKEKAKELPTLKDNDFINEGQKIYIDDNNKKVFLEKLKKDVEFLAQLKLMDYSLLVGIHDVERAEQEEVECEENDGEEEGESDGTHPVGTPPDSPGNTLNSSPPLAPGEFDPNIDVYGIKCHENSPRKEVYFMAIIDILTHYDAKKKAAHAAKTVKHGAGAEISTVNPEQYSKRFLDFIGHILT
Summary of the method: (§1)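 Nine compound concentrations were tested, starting at 30 μM in 1:4 steps on live Jurkat cells (60 min, 37 °C, then lysis) or in 1:5 steps on Jurkat lysate or a 1:1:1:1 HEK293/K-562/HepG2/placenta lysate mix (60 min, 4 °C). Kinobeads-bound proteins were digested and quantified with TMT10 LC-MS/MS. pIC50 values are from logistic dose-response fits in the R drc package of fold changes relative to vehicle, from biological duplicates.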

[2] = molecular target: T2, UniProt O14757
T2 sequence (whole entry): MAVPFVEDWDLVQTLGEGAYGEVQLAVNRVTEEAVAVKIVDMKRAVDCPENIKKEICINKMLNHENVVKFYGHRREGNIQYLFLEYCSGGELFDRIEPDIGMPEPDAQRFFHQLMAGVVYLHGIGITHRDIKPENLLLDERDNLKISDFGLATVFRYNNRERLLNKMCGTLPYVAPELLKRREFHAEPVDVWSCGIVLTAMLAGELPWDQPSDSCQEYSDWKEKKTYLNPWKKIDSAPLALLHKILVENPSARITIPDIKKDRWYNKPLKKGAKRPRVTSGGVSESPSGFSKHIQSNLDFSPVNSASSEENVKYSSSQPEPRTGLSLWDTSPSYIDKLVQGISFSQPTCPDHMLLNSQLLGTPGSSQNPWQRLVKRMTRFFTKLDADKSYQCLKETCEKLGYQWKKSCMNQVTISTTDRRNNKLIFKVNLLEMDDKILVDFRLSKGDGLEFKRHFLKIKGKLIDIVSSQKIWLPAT
Summary of the method: as §1

[3] = molecular target: T3, TNK1 (UniProt Q13470); conditions: cell material: Lysate mix
T3 sequence (whole entry): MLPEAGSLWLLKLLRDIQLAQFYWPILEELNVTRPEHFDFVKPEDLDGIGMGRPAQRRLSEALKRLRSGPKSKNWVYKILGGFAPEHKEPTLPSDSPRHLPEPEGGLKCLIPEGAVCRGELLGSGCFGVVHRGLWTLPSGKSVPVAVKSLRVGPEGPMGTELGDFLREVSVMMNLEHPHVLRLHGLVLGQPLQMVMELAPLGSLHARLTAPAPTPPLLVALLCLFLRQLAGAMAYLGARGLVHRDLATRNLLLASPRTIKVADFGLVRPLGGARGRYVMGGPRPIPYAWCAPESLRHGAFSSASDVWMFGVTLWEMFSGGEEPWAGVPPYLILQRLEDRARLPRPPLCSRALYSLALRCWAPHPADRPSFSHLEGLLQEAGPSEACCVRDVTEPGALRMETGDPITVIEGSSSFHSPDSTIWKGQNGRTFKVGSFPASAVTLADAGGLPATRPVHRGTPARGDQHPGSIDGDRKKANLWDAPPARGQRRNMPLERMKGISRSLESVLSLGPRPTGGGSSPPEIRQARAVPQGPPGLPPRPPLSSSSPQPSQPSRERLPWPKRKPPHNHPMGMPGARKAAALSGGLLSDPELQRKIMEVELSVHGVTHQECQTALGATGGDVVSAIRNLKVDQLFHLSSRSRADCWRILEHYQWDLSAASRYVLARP
Summary of the method: as §1

[4] = molecular target: T4, UniProt Q8TF76
T4 sequence (whole entry): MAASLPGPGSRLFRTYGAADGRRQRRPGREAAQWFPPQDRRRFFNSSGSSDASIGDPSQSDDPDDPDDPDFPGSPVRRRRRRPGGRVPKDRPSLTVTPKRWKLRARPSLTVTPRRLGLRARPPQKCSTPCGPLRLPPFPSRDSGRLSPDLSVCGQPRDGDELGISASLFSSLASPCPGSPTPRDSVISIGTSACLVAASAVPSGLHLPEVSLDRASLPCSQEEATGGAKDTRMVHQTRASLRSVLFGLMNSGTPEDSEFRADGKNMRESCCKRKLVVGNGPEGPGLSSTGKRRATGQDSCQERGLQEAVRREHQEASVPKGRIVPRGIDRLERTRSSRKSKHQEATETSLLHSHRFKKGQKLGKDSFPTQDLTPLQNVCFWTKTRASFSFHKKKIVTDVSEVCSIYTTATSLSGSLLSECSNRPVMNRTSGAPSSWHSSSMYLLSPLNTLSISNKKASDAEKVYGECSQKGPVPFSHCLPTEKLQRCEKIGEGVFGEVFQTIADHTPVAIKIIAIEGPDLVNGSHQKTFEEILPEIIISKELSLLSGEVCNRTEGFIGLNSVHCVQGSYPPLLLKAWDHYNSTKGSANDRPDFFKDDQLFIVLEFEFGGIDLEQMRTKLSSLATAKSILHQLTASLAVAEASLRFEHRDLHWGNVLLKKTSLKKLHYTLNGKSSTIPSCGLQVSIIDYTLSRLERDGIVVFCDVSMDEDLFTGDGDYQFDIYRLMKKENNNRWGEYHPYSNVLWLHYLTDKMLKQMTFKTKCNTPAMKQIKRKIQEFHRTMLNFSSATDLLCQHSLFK
Summary of the method: as §1

[5] = molecular target: UniProt P49841
Chain of UniProt P49841 (P49841 whole entry, looked up): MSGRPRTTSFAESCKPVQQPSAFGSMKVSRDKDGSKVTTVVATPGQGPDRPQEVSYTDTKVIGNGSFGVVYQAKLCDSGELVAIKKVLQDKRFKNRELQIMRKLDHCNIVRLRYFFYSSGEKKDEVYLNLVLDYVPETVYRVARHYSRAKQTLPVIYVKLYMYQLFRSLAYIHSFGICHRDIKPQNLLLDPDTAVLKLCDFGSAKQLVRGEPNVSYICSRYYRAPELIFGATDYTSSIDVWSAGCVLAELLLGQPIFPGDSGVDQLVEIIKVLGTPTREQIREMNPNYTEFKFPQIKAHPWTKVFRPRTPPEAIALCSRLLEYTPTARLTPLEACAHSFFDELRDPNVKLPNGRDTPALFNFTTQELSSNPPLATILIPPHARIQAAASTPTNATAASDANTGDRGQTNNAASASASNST
Summary of the method: as §1

SMILES | pIC50 ([1]; cell material: Lysate mix) | pIC50 ([2]; cell material: Lysate mix) | pIC50 [3] | pIC50 ([4]; cell material: Lysate mix) | pIC50 ([5]; cell material: Lysate mix) | pIC50 ([1]; cell material: Jurkat cells) | pIC50 ([1]; cell material: Jurkat lysate) | pIC50 ([2]; cell material: Jurkat cells) | pIC50 ([2]; cell material: Jurkat lysate) | pIC50 ([4]; cell material: Jurkat cells) | pIC50 ([4]; cell material: Jurkat lysate) | pIC50 ([5]; cell material: Jurkat cells) | pIC50 ([5]; cell material: Jurkat lysate)
C#CCNC(=O)c1cc(Nc2cc(C3CC3)[nH]n2)nc(N2CCN(Cc3ccc(S(=O)(=O)F)cc3)CC2)n1 | < 4.52 | < 4.52 | 7.34 | < 4.52 | < 4.52 | 4.96 | < 4.52 | 5.16 | < 4.52 | 5.26 | < 4.52 | 5.26 | < 4.52
O=C(NCCNC(=O)c1cc(Nc2cc(C3CC3)[nH]n2)nc(N2CCN(Cc3ccc(S(=O)(=O)F)cc3)CC2)n1)OC1CC/C=C/CCC1 (stereo unspecified) | < 4.52 | < 4.52 | 5.44 | < 4.52 | < 4.52 | < 4.52 | < 4.52 | < 4.52 | < 4.52 | < 4.52 | < 4.52 | 4.84 | < 4.52

Further lines, with some results ahead:

pIC50 ([1]; cell material: Lysate mix) | pIC50 ([2]; cell material: Lysate mix) | pIC50 [3] | pIC50 ([4]; cell material: Lysate mix) | pIC50 ([5]; cell material: Lysate mix) | SMILES | pIC50 ([1]; cell material: Jurkat cells) | pIC50 ([1]; cell material: Jurkat lysate) | pIC50 ([2]; cell material: Jurkat cells) | pIC50 ([2]; cell material: Jurkat lysate) | pIC50 ([4]; cell material: Jurkat cells) | pIC50 ([4]; cell material: Jurkat lysate) | pIC50 ([5]; cell material: Jurkat cells) | pIC50 ([5]; cell material: Jurkat lysate)
< 4.52 | < 4.52 | 6.23 | < 4.52 | < 4.52 | C#CCNC(=O)c1cc(Nc2cc(C)[nH]n2)nc(N2CCN(Cc3ccc(S(=O)(=O)F)cc3)CC2)n1 | – | – | – | – | – | – | – | –
< 4.52 | < 4.52 | 7.21 | < 4.52 | < 4.52 | CCNC(=O)c1cc(Nc2cc(C3CC3)[nH]n2)nc(N2CCN(Cc3ccc(S(=O)(=O)F)cc3)CC2)n1 | – | – | – | – | – | – | – | –
< 4.52 | < 4.52 | 7.07 | < 4.52 | < 4.52 | CCNC(=O)c1cc(Nc2cc(C)[nH]n2)nc(N2CCN(Cc3ccc(S(=O)(=O)F)cc3)CC2)n1 | – | – | – | – | – | – | – | –
< 4.52 | < 4.52 | 4.8 | < 4.52 | < 4.52 | Cc1cc(Nc2cc(C(=O)NCCNC(=O)OC3CC/C=C/CCC3)nc(N3CCN(Cc4ccc(S(=O)(=O)F)cc4)CC3)n2)n[nH]1 (stereo unspecified) | – | – | – | – | – | – | – | –
